# Read-outs that look alike come from different tables or passages of the source.
# Legend:
# KSR [1] = biological target: T1, KSR (Mus musculus, UniProt Q61097); test: KSR autophosphorylation in vitro; type: biochemical, mouse (KSR immunoprecipitated from COS-7 cells); parameters: Raf-1 peptides as substrate
# T1 sequence (Q61097 1-873): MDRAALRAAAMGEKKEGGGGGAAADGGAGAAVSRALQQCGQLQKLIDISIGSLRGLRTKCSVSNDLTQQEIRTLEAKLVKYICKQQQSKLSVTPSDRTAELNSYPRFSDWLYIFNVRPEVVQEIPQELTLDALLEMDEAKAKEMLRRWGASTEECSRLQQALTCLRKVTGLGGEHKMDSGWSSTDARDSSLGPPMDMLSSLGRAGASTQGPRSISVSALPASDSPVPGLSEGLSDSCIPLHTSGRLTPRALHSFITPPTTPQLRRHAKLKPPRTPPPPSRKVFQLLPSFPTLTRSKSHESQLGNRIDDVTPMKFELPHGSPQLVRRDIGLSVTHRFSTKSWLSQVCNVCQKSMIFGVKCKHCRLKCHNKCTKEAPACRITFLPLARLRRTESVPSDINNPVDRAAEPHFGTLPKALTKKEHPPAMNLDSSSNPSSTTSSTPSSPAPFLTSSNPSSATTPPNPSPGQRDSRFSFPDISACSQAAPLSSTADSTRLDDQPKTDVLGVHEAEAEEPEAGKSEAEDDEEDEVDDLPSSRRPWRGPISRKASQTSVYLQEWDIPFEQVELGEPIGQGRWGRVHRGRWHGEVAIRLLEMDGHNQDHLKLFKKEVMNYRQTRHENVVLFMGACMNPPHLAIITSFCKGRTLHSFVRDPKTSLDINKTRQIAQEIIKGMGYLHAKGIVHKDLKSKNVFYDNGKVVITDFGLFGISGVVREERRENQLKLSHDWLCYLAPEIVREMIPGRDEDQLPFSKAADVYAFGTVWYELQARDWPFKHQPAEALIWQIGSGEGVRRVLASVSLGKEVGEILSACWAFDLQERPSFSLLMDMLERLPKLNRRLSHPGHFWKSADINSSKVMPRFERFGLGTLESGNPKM
# Protocol: Phosphorylated KSR was resolved and detected as in FIG. 2A.
# KSR was immunoprecipitated as above from 0.8 mg NP-40 lysate protein with 40 μl agarose-conjugated anti-Flag antibody at 4° C. for 4 hrs or overnight. […] The reaction was stopped by addition of Laemmli sample buffer. Samples were resolved by 7.5% sodium dodecyl sulfate-polyacrylamide gel electrophoresis (SDS-PAGE) and autoradiographed.
# [2] = tested on: ceramide-activated protein kinase; test: EGFR peptide phosphorylation in a cell-free system (HL-60 nuclei-free supernate); type: biochemical, human (HL-60 cells); details: GTP and GTP-γ-S 0.25 to 200 μM; sphingomyelinase 1×10^-3 U ml^-1, 5 minutes; phospholipases 40- to 400-fold higher
# Protocol: Effect of TNF-α on ceramide-activated protein kinase activity. HL-60 cells were incubated in serum-free medium and homogenized (as in FIG. 9). […] ATP (750 μM, 4000 dpm pmol^-1), and 75 μl of reaction buffer. […] Phosphorylated peptide was first run on a C18 Sep-Pak cartridge, then resolved by C18 reverse-phase HPLC (Waters, Milford, Mass.), with a linear gradient of acetonitrile. The peptide eluted at 30% acetonitrile, as determined by monitoring Cerenkov radiation in 1-ml fractions. Background activity was subtracted from each point. (A) Kinetics of TNF-α (30 nM)-stimulated EGFR peptide phosphorylation. Values (mean) represent data from four experiments. (B) Concentration dependence of EGFR peptide phosphorylation at 5 minutes of stimulation with TNF-α (0.01 to 30 nM). Values (mean) represent data derived from duplicate points in two experiments. The SEM of the values in (A) was 18% and the mean range of values in (B) was 3%.
# Effect of phospholipases on ceramide-activated protein kinase activity. Nuclei-free supernates, prepared as in FIG. 9, were first incubated with TNF-α (3 nM) or added directly to reaction mixtures that contained various phospholipases; sphingomyelinase (SMase) (1×10^-3 U ml^-1, S. aureus), phospholipase A2 (PlA2) (3.8×10^-2 and 3.8×10^-1 U ml^-1, Vipera ruselli), phospholipase C (PLC) (3.8×10^-2 U ml^-1, Bacillus cereus) and phospholipase D (PLD) (3.8×10^-2 U ml^-1, Streptomyces chromocuscus). Peptide phosphorylation was measured as in FIG. 10. Control value represents peptide phosphorylation in the absence of phospholipases or TNF-α. Values (mean±SEM) represent data derived from duplicate samples in three experiments. *P<0.001 compared to control.
# The effect of TNF-α on ceramide-activated protein kinase activity was assessed. […] For studies assessing the effect of TNFα in broken cell preparations, nuclei-free supernates were incubated under conditions sufficient for stimulation of neutral sphingomyelinase in a reaction mixture that also contained EGFR peptide and γ-^32 P-labeled ATP. Phosphorylated peptide was resolved by high-performance liquid chromatograph (HPLC) and quantified by Cerenkov counting. Kinase activity was calculated from the specific activity of [γ-^32 P] ATP and incorporation of ^32 P into EGFR peptide. Background activity was subtracted from each point. […] TNF-α stimulation of kinase activity was evident by 1 minute and demonstrable for at least 10 minutes. If the initial incubation with TNF-α at 4° C. was omitted and TNF was added directly to the reaction mixture at 22° C., the reaction was delayed. […] TNF-α enhanced kinase activity in a concentration-dependent manner at 5 minutes (FIG. 10B). […] This is similar to the ED50 of 200 pM for stimulation of ceramide-activated protein kinase by TNF-α in intact cells. TNF-α enhanced kinase activity in a total of 20 separate studies.
# Control activity reflects several TNF-α-independent protein kinases that are known to phosphorylate EGFR peptide on Thr^669.
# [3] = tested on: ceramide-activated protein kinase; details: generation of other lipid second messengers, refs [111, 112]; cited from earlier work
# KSR [4] = biological target: T1, KSR; test: KSR activity toward Raf-1 peptides in vitro; type: biochemical, mouse (KSR immunoprecipitated from COS-7 cells); parameters: Raf-1 peptides as substrate; details: 30 nM
# Protocol: The wild type peptide contains eight potential phosphorylation sites (shown in bold). Substitution of alanines and glycines for serines and threonines generated one peptide (TTLP-peptide) containing only two potential phosphorylation sites (Thr^268,269) and another peptide (AALP-peptide) with no potential phosphorylation sites.
# FIG. 28A--Flag-tagged KSR was immunoprecipitated from 0.2 mg COS-7 lysate, and assayed with TTLP- or AALP-peptides in the presence of 30 nM ceramide (Avanti) or diluent (DMSO). Background counts per minute (cpm) derived from samples incubated with the AALP-peptide which contains no phosphorylation sites were subtracted from all points. Background cpm always represented less than 25% of the untreated total.
# FIG. 28B--Flag-tagged KSR immunoprecipitated from 0.2 mg COS-7 lysate was assayed with TTLP- or AALP-peptides in the presence of ceramide or diluent for 45 min as described in FIG. 7A.
# FIG. 28C--Flag-tagged KSR was immunoprecipitated from 0.15 mg COS-7 lysate and assayed with TTLP- or AALP-peptides for 20 min in the presence of 30 nM of the indicated lipid second messengers as described in FIG. 28A (AA: arachidonic acid; LPA: lyso phosphatidic acid; PMA: phorbol 12-myristate 13-acetate; DAG: 1,2-diacylglycerol).
# KSR-bound beads were incubated with reaction buffer B plus 10 mM MnCl2, 5 μM ATP and [γ-^32 P]ATP at 22° C. for the period of time indicated in the presence of 0.3 mM synthetic Raf-peptide or substrate peptides specific for other Ser/Thr protein kinases. […] (SEQ ID NO.3). Substitution of glycines and alanines for serines and threonines generated one peptide (termed TTLP-peptide) containing only two potential phosphorylation sites at Thr^268,269 (in bold), […] (SEQ ID NO. 24), and another peptide (termed AALP-peptide; SEQ ID No.6) with no potential phosphorylation sites, […] (SEQ ID No.25). The amino acid sequences of substrate peptides specific for other protein kinases (Joseph et al., 1993) are: […] (SEQ ID NO.26) (PKA); […] (SEQ ID NO.27) (S6 kinase); […] (SEQ ID NO.28)(CK II); […] (SEQ ID NO.29) (CaM kinase II); and […] (SEQ ID NO.30) (PKC). […] Substrate peptides for PKA and PKC were from Sigma (St. Louis, Mo.). The reaction was stopped by addition of a stop solution containing 0.5 M ATP in 90% formic acid. The beads were removed by centrifugation at 5000×g for 2 min and the supernatant was loaded on P81 Whatman filter paper. The filter was air dried and washed in 4 mM Na2 H2 P2 O7, 1 mM acetic acid for one hour. The filter was baked at 90° C. for 10 min and quantified by Cerenkov counting using a Beckman LS 5000TD scintillation counter. In some experiments, samples were separated by C18 reverse-phase chromatography on HPLC (Mathias et al., 1991) to verify the results of the filter assay. Virtually identical results were obtained with both methods.
# Raf-1 = test: Kinase activity of immunoprecipitated Raf-1 toward MEK1 after HL-60 cell stimulation; type: cell-based, human (HL-60 cells)
# Protocol: Recovery of MEK1 was monitored by western blot (Bottom Panel). Identical results were obtained with cells stimulated for 5 min with TNF.
# Recovery of MEK1 was monitored by western blot (Bottom Panel).
# These studies indicate that Raf-1 is a component of the sphingomyelin pathway mediating TNF action.
# MEK1 autophosphorylation was for 45 min. An autoradiogram of MEK1 phosphorylation (top panel) and recovery of MEK1 protein by western blot (bottom panel) are shown. For western blot, proteins separated by SDS-PAGE were electrotransferred to an Immobilon PVDF membrane at 12 volts overnight at 4° C. Membranes were then blocked with 2% BSA in TBS [20 mM Tris, pH 7.6, 137 mM NaCl] for 1 hr and washed with TBST (TBS containing 0.2% Tween-20).
compound,measurement,setting,value
phosphatidylcholine,effect on activation of KSR,KSR [1],no effect
"Nc1nc2c(ncn2[C@@H]2O[C@H](COP(=O)(O)OP(=O)(O)OP(O)(O)=S)[C@@H](O)[C@H]2O)c(=O)[nH]1 [GTP-γ-S, guanosine-5'-O-(3-thiotriphosphate)]",effect on kinase activity,[2],did not affect kinase activity
phosphatidic acid,effect on kinase activity,[3],failed to enhance kinase activity
CCCCC/C=C\C/C=C\C/C=C\C/C=C\CCCC(=O)O [arachidonic acid],effect on activation of KSR towards Raf-peptide,KSR [4],no effect
same,effect on kinase activity,[3],failed to enhance kinase activity
same,effect on activation of KSR,KSR [1],no effect
insulin: insulin,increase of Raf-1 activity,Raf-1; insulin 100 nM,4 fold
PDGF,increase of Raf-1 activation,"Raf-1; PDGF 5 nM, after TPA induction of PDGF receptors",4 fold
"1,2-diacylglycerol",effect on activation of KSR towards Raf-peptide,KSR [4],no effect
same,effect on kinase activity,[3],failed to enhance kinase activity
same,effect on activation of KSR,KSR [1],no effect
phosphatidylserine,effect on activation of KSR,KSR [1],no effect
"Nc1nc2c(ncn2[C@@H]2O[C@H](COP(=O)(O)OP(=O)(O)OP(=O)(O)O)[C@@H](O)[C@H]2O)c(=O)[nH]1 [GTP, Guanosine triphosphate]",effect on kinase activity,[2],did not affect kinase activity
lyso-phosphatidic acid,effect on activation of KSR towards Raf-peptide,KSR [4],no effect
same,effect on activation of KSR,KSR [1],no effect
Granulocyte-macrophage colony stimulating factor: induces monocytic differentiation of HL-60 cells,increase of Raf-1 activity,Raf-1; GM-CSF 500 pM,2.5 fold

# Reference: patent US6040149A, “Assay for identifying agents which act on the ceramide-activated protein kinase, kinase suppressor of ras, and methods of using said agents” (priority 1997, dated 2000)
